Counter-ions that a name gives are not always drawn.
Key:
[1] = biological target: CDK7 (Homo sapiens, UniProt P50613); conditions: cited from earlier work
[2] = biological target: CDK1 (Homo sapiens, UniProt P06493); conditions: cited from earlier work
[3] = biological target: CDK2 (Homo sapiens, UniProt P24941); conditions: cited from earlier work
[4] = biological target: CDK5 (Homo sapiens, UniProt Q00535); conditions: cited from earlier work
[5] = biological target: CDK4 (Homo sapiens, UniProt P11802); conditions: cited from earlier work
[6] = biological target: CDK6 (Homo sapiens, UniProt Q00534); design: key to the marks not given beside the values; conditions: cited from earlier work
[7] = biological target: CDK9 (Homo sapiens, UniProt P50750); design: key: + is used to indicate the potency of the inhibitor; ++++ > +++ > ++ > +; + is used to indicate the potency of the inhibitor; ++++ > +++ > ++ > +; + is used to indicate the potency of the inhibitor; ++++ > +++ > ++ > +; + is used to indicate the potency of the inhibitor; ++++ > +++ > ++ > +; ◯ refers to compounds with inhibitory effects on the related isoform, but without specific value; conditions: cited from earlier work
[8] = tested on: CLK; design: key: + is used to indicate the potency of the inhibitor; ++++ > +++ > ++ > +; + is used to indicate the potency of the inhibitor; ++++ > +++ > ++ > +; + is used to indicate the potency of the inhibitor; ++++ > +++ > ++ > +; + is used to indicate the potency of the inhibitor; ++++ > +++ > ++ > +; ◯ refers to compounds with inhibitory effects on the related isoform, but without specific value; conditions: cited from earlier work
[9] = tested on: ACE2; type: cell-based, human
[10] = tested on: TMPRSS2, CTSL and FURIN; type: cell-based, human
[11] = tested on: ACE2, TMPRSS2, and CTSL; assay: mRNA levels in A549 cells (qRT-PCR); type: cell-based, human; conditions: 24 hr
Experimental: Cells were incubated with rhCHI3L1 from a commercial source (R&D Inc.) and rhCHI3L1 generated at Brown University (Brown) and compared to vehicle controls. mRNA was then extracted and the levels of mRNA for ACE2 and CTSL were evaluated by real time qRT-PCR. Levels were expressed in relationship to GAPDH controls. *p<0.05; **p<0.01 (Student's t-test).
A549 cells were incubated with the noted concentrations of rhCHI3L1 for the note amounts of time. The levels of mRNA encoding ACE2, TMPRSS2, and CTSL were assessed via qRT-PCR. The statistics compare cells incubated with vehicle control (nothing tested, NT) and cells incubated with 250 ng/ml of rhCHI3L1. […]
Total cellular RNA was obtained using TRIzol reagent (ThermoFisher Scientific) followed by RNA extraction using RNeasy Mini Kit (Qiagen, Germantown, MD) according to the manufacturer's instructions. mRNA was measured and used for real time (RT)-PCR as described previously.^79,80 The primer sequences used in these studies are summarized in Table 1. […]
In the first study, A549 cells were incubated with rhCHI3L1 from a commercial source (R&D Inc.) and rhCHI3L1 generated at Brown University (Brown). The cells were incubated for 24 hr with stimulation of rhCHI3L1 (500 ng/mL) at 37° C. mRNA was then extracted and the levels of mRNA for ACE2 and CTSL were evaluated by real time qRT-PCR and compared to vehicle controls. […]

[12] = tested on: ACE2, TMPRSS2, and CTSL; assay: mRNA levels in normal human small airway epithelial cells (qRT-PCR); type: cell-based; conditions: normal HSAEC, rhCHI3L1 500 ng/mL, 24 hours
Experimental: HSAEC were incubated with the noted concentrations of recombinant rhCHI3L1 for 24 hours. The levels of mRNA encoding ACE2, TMPRSS2, and CTSL were assessed via qRT-PCR. The levels are expressed in relationship to GAPDH controls. *p<0.05 (Student's t-test).
Total cellular RNA was obtained using TRIzol reagent (ThermoFisher Scientific) followed by RNA extraction using RNeasy Mini Kit (Qiagen, Germantown, MD) according to the manufacturer's instructions. mRNA was measured and used for real time (RT)-PCR as described previously.^79,80 The primer sequences used in these studies are summarized in Table 1. Ct values of the test genes were normalized to the internal housekeeping gene […].
In the present study, normal HSAEC were incubated with 0, 100 ng/mL, or 500 ng/mL of rhCHI3L1 for 24 hours at 37° C. The levels of mRNA encoding ACE2, TMPRSS2, and CTSL were assessed via qRT-PCR and expressed in relationship to GAPDH controls.

[13] = tested on: pseudovirus containing the S protein (D614 and G614 variants); type: cell-based; conditions: Calu-3 cells, rCHI3L1 24 hours, GFP
[14] = tested on: pseudovirus with the ancestral G614 S protein; type: cell-based, SARS-CoV-2
[15] = tested on: ACE2; assay: Immunocytochemical evaluation of ACE2 in Calu-3 cells; type: cell-based, human; conditions: CHI3L1 250 ng/mL; double labeled ICC
[16] = tested on: pseudoviruses with delta S proteins; type: cell-based, SARS-CoV-2
[17] = Calu-3 cells, rhCHI3L1 250 ng/mL, 24 hours, vs vehicle

Sequence of CDK4 (P11802 whole entry, species assumed): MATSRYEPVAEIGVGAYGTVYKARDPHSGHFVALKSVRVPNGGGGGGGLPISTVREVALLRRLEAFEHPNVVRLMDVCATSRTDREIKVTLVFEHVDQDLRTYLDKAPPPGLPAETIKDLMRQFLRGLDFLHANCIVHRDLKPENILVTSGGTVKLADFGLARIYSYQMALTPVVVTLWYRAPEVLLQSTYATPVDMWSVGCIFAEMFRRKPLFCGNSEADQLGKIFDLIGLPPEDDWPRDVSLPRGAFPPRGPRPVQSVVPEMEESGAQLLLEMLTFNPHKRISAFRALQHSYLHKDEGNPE
Sequence of CDK4 (P24385 whole entry partner, species assumed): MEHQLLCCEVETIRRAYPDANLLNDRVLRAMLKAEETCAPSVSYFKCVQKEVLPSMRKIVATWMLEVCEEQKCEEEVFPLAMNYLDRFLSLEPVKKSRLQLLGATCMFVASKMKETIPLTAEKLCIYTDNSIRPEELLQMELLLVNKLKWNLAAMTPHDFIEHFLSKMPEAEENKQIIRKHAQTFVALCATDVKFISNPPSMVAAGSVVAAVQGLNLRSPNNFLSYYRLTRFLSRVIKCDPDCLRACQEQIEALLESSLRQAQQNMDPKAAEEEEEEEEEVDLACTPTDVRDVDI
Sequence of CDK9 (P50750 whole entry, canonical isoform): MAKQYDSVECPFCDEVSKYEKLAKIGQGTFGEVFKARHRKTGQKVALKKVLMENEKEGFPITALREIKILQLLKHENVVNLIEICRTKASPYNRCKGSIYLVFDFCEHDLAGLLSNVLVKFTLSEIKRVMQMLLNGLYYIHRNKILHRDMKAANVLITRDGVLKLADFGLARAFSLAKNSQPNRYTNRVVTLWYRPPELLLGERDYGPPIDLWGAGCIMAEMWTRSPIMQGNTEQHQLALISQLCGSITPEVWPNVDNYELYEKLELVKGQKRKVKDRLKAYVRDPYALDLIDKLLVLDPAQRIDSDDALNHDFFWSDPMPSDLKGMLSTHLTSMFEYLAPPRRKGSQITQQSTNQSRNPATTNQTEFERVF
Sequence of CDK9 (O60563 whole entry, further chain, canonical isoform): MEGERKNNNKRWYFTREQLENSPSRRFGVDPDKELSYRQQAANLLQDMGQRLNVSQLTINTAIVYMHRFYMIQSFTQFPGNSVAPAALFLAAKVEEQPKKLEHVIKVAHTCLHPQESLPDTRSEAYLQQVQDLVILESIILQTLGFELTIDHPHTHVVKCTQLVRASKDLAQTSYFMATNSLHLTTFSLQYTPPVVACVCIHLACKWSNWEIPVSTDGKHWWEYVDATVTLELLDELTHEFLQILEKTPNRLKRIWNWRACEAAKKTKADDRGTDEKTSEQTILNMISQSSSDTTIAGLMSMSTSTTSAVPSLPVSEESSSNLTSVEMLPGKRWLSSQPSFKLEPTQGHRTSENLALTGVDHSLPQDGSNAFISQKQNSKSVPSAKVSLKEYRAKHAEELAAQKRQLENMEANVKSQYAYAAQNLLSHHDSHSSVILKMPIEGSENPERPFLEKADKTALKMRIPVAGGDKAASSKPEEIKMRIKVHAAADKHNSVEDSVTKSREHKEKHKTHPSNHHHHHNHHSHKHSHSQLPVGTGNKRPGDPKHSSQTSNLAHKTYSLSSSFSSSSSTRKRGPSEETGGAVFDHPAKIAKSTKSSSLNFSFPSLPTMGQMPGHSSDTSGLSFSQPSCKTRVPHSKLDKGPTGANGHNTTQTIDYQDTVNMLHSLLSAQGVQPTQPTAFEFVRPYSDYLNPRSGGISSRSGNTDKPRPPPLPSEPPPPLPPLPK
Sequence of CDK5 (Q15078 99-307): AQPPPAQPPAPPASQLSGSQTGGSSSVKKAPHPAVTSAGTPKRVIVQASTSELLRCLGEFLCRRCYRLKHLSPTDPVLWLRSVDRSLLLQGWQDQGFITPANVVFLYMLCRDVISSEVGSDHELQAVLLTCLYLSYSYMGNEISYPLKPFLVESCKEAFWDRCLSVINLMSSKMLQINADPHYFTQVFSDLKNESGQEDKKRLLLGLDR
Sequence of CDK5 (Q00535 whole entry): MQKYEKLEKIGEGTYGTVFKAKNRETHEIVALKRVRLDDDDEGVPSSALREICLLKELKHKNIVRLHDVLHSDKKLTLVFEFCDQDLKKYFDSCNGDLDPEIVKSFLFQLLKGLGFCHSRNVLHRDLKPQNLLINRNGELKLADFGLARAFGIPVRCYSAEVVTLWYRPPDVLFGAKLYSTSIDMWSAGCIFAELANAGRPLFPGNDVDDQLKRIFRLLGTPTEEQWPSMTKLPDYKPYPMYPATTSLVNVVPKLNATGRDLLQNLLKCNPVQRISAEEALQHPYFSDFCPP
Sequence of CDK6 (Q00534 whole entry, canonical isoform): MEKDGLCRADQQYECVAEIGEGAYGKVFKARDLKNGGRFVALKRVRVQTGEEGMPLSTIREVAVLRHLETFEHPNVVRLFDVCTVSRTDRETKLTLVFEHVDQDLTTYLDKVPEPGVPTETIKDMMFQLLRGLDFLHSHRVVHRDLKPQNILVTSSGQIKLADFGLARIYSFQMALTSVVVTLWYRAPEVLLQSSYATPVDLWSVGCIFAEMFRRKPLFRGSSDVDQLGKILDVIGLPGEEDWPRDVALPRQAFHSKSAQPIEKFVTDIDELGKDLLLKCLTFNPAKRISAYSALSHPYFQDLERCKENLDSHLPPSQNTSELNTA
Sequence of CDK6 (P30281 whole entry, further chain, canonical isoform): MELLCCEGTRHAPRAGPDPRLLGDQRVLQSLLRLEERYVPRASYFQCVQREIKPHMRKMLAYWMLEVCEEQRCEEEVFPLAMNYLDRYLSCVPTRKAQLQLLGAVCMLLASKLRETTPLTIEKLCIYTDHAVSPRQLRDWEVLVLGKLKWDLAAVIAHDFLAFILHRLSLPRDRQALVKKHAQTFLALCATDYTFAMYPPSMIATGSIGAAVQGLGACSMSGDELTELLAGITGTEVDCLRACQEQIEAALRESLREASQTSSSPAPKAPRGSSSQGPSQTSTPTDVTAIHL
Sequence of CDK7 (P50613 whole entry): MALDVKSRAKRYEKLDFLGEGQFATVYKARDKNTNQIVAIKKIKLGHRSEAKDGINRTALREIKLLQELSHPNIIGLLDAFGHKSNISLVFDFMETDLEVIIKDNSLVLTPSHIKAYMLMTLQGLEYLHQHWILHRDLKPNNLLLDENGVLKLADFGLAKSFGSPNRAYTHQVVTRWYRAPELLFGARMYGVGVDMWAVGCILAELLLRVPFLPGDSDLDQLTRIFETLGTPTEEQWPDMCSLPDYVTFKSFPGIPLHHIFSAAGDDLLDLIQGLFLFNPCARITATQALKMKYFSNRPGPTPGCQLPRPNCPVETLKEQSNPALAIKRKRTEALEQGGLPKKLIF
Sequence of CDK7 (P51946 whole entry, further chain): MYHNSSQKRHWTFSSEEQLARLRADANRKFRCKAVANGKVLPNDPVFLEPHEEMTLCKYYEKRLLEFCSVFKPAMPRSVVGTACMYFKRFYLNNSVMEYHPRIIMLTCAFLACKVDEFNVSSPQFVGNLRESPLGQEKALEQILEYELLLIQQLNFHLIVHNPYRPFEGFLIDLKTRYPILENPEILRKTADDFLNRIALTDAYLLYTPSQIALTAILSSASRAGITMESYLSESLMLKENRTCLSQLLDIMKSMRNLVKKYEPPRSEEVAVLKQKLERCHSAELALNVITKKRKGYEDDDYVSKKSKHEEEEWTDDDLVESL
Sequence of CDK7 (P51948 whole entry, further chain): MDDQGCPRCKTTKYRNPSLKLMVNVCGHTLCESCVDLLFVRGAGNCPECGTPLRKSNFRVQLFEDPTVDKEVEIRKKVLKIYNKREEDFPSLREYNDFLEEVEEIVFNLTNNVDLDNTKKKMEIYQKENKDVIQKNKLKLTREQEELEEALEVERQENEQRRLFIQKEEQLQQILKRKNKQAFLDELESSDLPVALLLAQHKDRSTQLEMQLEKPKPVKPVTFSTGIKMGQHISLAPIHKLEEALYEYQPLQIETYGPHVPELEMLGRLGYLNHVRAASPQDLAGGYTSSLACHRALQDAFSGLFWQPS
Sequence of CDK1 (P06493 whole entry, species assumed): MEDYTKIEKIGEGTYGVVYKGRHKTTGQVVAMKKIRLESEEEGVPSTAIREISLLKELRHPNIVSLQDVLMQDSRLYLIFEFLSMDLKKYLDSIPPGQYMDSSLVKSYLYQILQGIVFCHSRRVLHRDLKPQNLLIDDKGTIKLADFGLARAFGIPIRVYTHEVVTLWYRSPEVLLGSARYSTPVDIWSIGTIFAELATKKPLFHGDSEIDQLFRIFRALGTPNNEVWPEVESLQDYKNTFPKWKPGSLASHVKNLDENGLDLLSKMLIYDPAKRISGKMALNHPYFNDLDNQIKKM
Sequence of CDK1 (P14635 whole entry partner, species assumed): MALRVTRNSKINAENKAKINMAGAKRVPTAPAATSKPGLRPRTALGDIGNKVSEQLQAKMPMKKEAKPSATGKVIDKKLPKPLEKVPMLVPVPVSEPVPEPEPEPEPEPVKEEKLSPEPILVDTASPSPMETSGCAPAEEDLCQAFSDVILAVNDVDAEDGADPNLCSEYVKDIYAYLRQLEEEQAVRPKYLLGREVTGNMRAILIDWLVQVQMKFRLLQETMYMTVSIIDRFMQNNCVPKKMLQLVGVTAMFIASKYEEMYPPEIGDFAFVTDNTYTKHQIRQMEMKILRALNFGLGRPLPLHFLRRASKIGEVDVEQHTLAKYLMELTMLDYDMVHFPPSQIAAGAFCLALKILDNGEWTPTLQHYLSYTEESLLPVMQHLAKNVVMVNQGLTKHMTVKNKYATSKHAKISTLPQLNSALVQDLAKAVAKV

Compound | Inhibitory potency CDK1 [2] | Inhibitory potency CDK2 [3] | Inhibitory potency CDK4 [5] | other results
O=C(NC1CCNCC1)c1[nH]ncc1NC(=O)c1c(Cl)cccc1Cl [AT7519] |  |  |  | Inhibitory potency CDK7 [1]: +
Kenpaulione | + | + |  | Inhibitory potency CDK5 [4]: +
O=C(NC1CCNCC1)c1[nH]ncc1NC(=O)c1c(Cl)cccc1Cl [AT7519 HCl] | ++ |  | ++ | Inhibitory potency CDK5 [4]: +++; Inhibitory potency CDK6 [6]: ++; Inhibitory potency CDK9 [7]: ++++
C[C@H]1CC[C@H](n2c3cnccc3c3cnc(Nc4ccc5c(n4)CCN(C(=O)CO)C5)nc32)CC1 [AMG-925] | + |  | ++++ | 
LDC000067 | + |  | + | Inhibitory potency CDK9 [7]: +++
Ro-3306 | +++ |  |  | 
PHA-767491 | ++ | ++ |  | Inhibitory potency CDK5 [4]: +; Inhibitory potency CDK9 [7]: +++
Palbociclib Isethionate |  |  |  | Inhibitory potency CDK6 [6]: +++
Cn1cc(-c2cnn3c(N)c(Br)c([C@@H]4CCCNC4)nc23)cn1 [MK-8776] |  | ++ |  | 
TG003 |  |  |  | Inhibitory potency CLK [8]: +++
COc1ccc(CNc2nc(N(CCO)CCO)nc3c2ncn3C(C)C)cc1 [CVT 313] | + | + | + | 
CC(C)CC(=O)Nc1[nH]nc2c1CN(C(=O)C1CCN(C)CC1)C2(C)C [PHA-793887] | ++ | ++++ | ++ | Inhibitory potency CDK5 [4]: ++++; Inhibitory potency CDK7 [1]: ++++; Inhibitory potency CDK9 [7]: ++
ML167 |  |  |  | Inhibitory potency CLK [8]: ++
CCCCOc1c(C(=O)c2c(F)cc(C)cc2F)c[nH]c2nncc1-2 [BMS-265246] | ++++ | ++++ | ++ | 
COc1c(O)cc(O)c2c(=O)cc(-c3ccccc3)oc12 [Wogonin] |  |  |  | Inhibitory potency CDK9 [7]: ◯
NU2058 | + |  |  | 
Cc1ncc(-c2ccnc(Nc3ccc(S(C)(=O)=O)cc3)n2)n1C(C)C [AZD5438] | +++ |  |  | Inhibitory potency CDK9 [7]: +++
NU 6102 | +++ |  | + | 
CC(C)(C)c1cnc(CSc2cnc(NC(=O)C3CCNCC3)s2)o1 [SNS-032] | + |  |  | Inhibitory potency CDK5 [4]: +; Inhibitory potency CDK9 [7]: ++++
Purvalanol B |  |  |  | Inhibitory potency CDK5 [4]: ++++
Purvalanol A |  |  | + | 
NU6027 | + |  |  | 
NVP-LCQ195 | ++++ | +++ |  | Inhibitory potency CDK5 [4]: ++++; Inhibitory potency CDK9 [7]: ◯; Inhibitory potency CLK [8]: ◯
rhCHI3L1: recombinant human CHI3L1 (chitinase 3 like 1) protein, from R&D Inc. or generated at Brown University |  |  |  | levels of mRNA encoding ACE2 [9, 17]: significantly upregulated; levels of mRNA encoding TMPRSS2, CTSL and FURIN [10, 17]: significantly upregulated; levels of mRNA encoding Ace2 and cathepsin L (CTSL) ([11]; rhCHI3L1 500 ng/mL, 37° C.): significantly upregulated; levels of mRNA encoding ACE2, TMPRSS2, and CTSL ([11]; rhCHI3L1 250 or 500 ng/mL): significantly upregulated; levels of mRNA encoding ACE2, TMPRSS2, and CTSL [12]: significantly upregulated; cellular integration of S proteins [13]: stimulated; uptake of pseudovirus [14]: potent stimulator; Calu-3 cell ACE2 accumulation [15]: augmented; delta pseudovirus infection [16]: augmented
CN1CC[C@H](c2c(O)cc(O)c3c(=O)cc(-c4ccccc4Cl)oc23)[C@H](O)C1 [Flavopiridol] | +++ | +++ | +++ | ability of CHI3L1 to stimulate ACE2 mRNA accumulation [9]: potently inhibited; levels of basal ACE2 expression [9]: diminished; basal and CHI3L1-stimulated expression of TMPRSS2, CTSL and FURIN [10]: potently decreased; Inhibitory potency CDK6 [6]: ++; Inhibitory potency CDK7 [1]: +
CGP60474 | +++ | +++ |  | 
CNC(=O)c1nn(C)c2c1C(C)(C)Cc1cnc(Nc3ccc(N4CCN(C)CC4)cc3)nc1-2 [Milciclib] | + | +++ | ++ | Inhibitory potency CDK5 [4]: +; Inhibitory potency CDK7 [1]: ++
Nc1nc(Nc2ccc(S(N)(=O)=O)cc2)nn1C(=O)c1c(F)cccc1F [JNJ-7706621] | ++++ | ++++ | + | Inhibitory potency CDK6 [6]: ++

— patent US20230312752A1 (Brown University, priority 2021, published 2023)
